Assay results reported in article PMC5218480 (PLoS ONE, 2017).

Test system: MV-4-11 cells
Assay: Gene expression microarray analysis (Affymetrix PrimeView) and GSEA
Assay type: cell-based, human
Parameters: RFU PODN (11730768_x_at) / Fold change /veh PODN (11730768_x_at) / RFU LINC00158 (11744669_a_at) / Fold change /veh LINC00158 (11744669_a_at) / RFU DUSP10 (11751237_a_at) / Fold change /veh DUSP10 (11751237_a_at) / RFU ID3 (11757404_x_at) / Fold change /veh ID3 (11757404_x_at) / RFU PLEKHG5 (11737974_s_at) / Fold change /veh PLEKHG5 (11737974_s_at) / RFU LRRC4B (11730491_at) / Fold change /veh LRRC4B (11730491_at) / RFU GIMAP4 (11747438_a_at) / Fold change /veh GIMAP4 (11747438_a_at) / RFU KRT8 (11758183_x_at) / Fold change /veh KRT8 (11758183_x_at) / RFU CNN1 (11734310_a_at) / Fold change /veh CNN1 (11734310_a_at) / RFU VPS37D (11726825_at) / Fold change /veh VPS37D (11726825_at) / RFU C10orf10 (11716522_x_at) / Fold change /veh C10orf10 (11716522_x_at) / RFU KIR2DL2 /// KIR2DL4 /// KIR2DL5A /// KIR2DL5B /// KIR2DS1 /// KIR2DS2 /// KIR2DS3 /// KIR2DS4 /// KIR3DL3 /// KIR3DL3 /// KIR3DS1 (11738374_at) / Fold change /veh KIR2DL2 /// KIR2DL4 /// KIR2DL5A /// KIR2DL5B /// KIR2DS1 /// KIR2DS2 /// KIR2DS3 /// KIR2DS4 /// KIR3DL3 /// KIR3DL3 /// KIR3DS1 (11738374_at) / RFU C1QL1 (11718748_at) / Fold change /veh C1QL1 (11718748_at) / RFU TMPRSS4 (11747572_a_at) / Fold change /veh TMPRSS4 (11747572_a_at) / RFU HAMP (11756126_x_at) / Fold change /veh HAMP (11756126_x_at) / RFU RNFT2 (11725882_a_at) / Fold change /veh RNFT2 (11725882_a_at) / RFU NR4A2 (11747474_a_at) / Fold change /veh NR4A2 (11747474_a_at) / RFU ABCC12 (11746883_a_at) / Fold change /veh ABCC12 (11746883_a_at) / RFU TMEM136 (11760407_x_at) / Fold change /veh TMEM136 (11760407_x_at) / RFU CLDN22 /// WWC2 (11732394_at) / Fold change /veh CLDN22 /// WWC2 (11732394_at) / RFU HLA-DPB1 (11760878_x_at) / Fold change /veh HLA-DPB1 (11760878_x_at) / RFU SPINT1 (11716480_a_at) / Fold change /veh SPINT1 (11716480_a_at) / RFU GAP43 (11754022_s_at) / Fold change /veh GAP43 (11754022_s_at) / RFU A4GNT (11735810_at) / Fold change /veh A4GNT (11735810_at) / RFU PRB3 (11715151_x_at) / Fold change /veh PRB3 (11715151_x_at) / RFU TUBB4B (11761932_at) / Fold change /veh TUBB4B (11761932_at) / RFU CAPN14 (11732068_a_at) / Fold change /veh CAPN14 (11732068_a_at) / RFU TMCC2 (11721928_a_at) / Fold change /veh TMCC2 (11721928_a_at) / RFU IRGQ (11745062_a_at) / Fold change /veh IRGQ (11745062_a_at) / RFU FAM174B (11720279_a_at) / Fold change /veh FAM174B (11720279_a_at) / RFU TMPRSS4 (11748680_a_at) / Fold change /veh TMPRSS4 (11748680_a_at) / RFU FAM212B (11763350_a_at) / Fold change /veh FAM212B (11763350_a_at) / RFU PLEKHG5 (11743358_a_at) / Fold change /veh PLEKHG5 (11743358_a_at) / RFU ZSCAN30 (11745921_a_at) / Fold change /veh ZSCAN30 (11745921_a_at) / RFU CMKLR1 (11741424_a_at) / Fold change /veh CMKLR1 (11741424_a_at) / RFU LOC101060620 /// MAPK8IP1 (11723275_at) / Fold change /veh LOC101060620 /// MAPK8IP1 (11723275_at) / RFU SPTSSB (11747773_x_at) / Fold change /veh SPTSSB (11747773_x_at) / RFU PRSS12 (11739890_at) / Fold change /veh PRSS12 (11739890_at) / RFU BIN1 (11741810_x_at) / Fold change /veh BIN1 (11741810_x_at) / RFU WNT11 (11732464_a_at) / Fold change /veh WNT11 (11732464_a_at) / RFU C10orf10 (11716521_a_at) / Fold change /veh C10orf10 (11716521_a_at) / RFU C5orf56 (11738089_at) / Fold change /veh C5orf56 (11738089_at) / RFU CYB561 (11721691_x_at) / Fold change /veh CYB561 (11721691_x_at) / RFU ANKRD19P (11752326_a_at) / Fold change /veh ANKRD19P (11752326_a_at) / RFU OR2T12 /// OR2T33 /// OR2T8 (11738714_s_at) / Fold change /veh OR2T12 /// OR2T33 /// OR2T8 (11738714_s_at) / RFU VCAN (11748164_a_at) / Fold change /veh VCAN (11748164_a_at) / RFU JSRP1 (11732532_at) / Fold change /veh JSRP1 (11732532_at) / RFU KRTAP10-11 (11738290_x_at) / Fold change /veh KRTAP10-11 (11738290_x_at) / RFU MYO3A (11730013_a_at) / Fold change /veh MYO3A (11730013_a_at) / RFU EBF3 (11725865_a_at) / Fold change /veh EBF3 (11725865_a_at) / RFU CAMK2N1 (11719241_x_at) / Fold change /veh CAMK2N1 (11719241_x_at) / RFU C5orf56 (11738088_a_at) / Fold change /veh C5orf56 (11738088_a_at) / RFU OLFML3 (11715873_a_at) / Fold change /veh OLFML3 (11715873_a_at) / RFU LOC100653217 /// NTM (11731650_a_at) / Fold change /veh LOC100653217 /// NTM (11731650_a_at) / RFU MAPK11 (11762145_a_at) / Fold change /veh MAPK11 (11762145_a_at) / RFU FIZ1 (11724087_x_at) / Fold change /veh FIZ1 (11724087_x_at) / RFU OASL (11726364_x_at) / Fold change /veh OASL (11726364_x_at) / RFU SOX15 (11748057_x_at) / Fold change /veh SOX15 (11748057_x_at) / RFU CD79A (11719716_a_at) / Fold change /veh CD79A (11719716_a_at) / RFU HIST1H1D (11736915_at) / Fold change /veh HIST1H1D (11736915_at) / RFU CASKIN2 (11723855_a_at) / Fold change /veh CASKIN2 (11723855_a_at) / RFU LOC730098 (11760151_x_at) / Fold change /veh LOC730098 (11760151_x_at) / RFU OR4N2 (11742367_at) / Fold change /veh OR4N2 (11742367_at) / RFU PRRT2 (11749266_a_at) / Fold change /veh PRRT2 (11749266_a_at) / RFU SNX32 (11753110_a_at) / Fold change /veh SNX32 (11753110_a_at) / RFU CDHR5 (11726645_a_at) / Fold change /veh CDHR5 (11726645_a_at) / RFU RCAN1 (11760418_a_at) / Fold change /veh RCAN1 (11760418_a_at) / RFU FAM167A (11723789_a_at) / Fold change /veh FAM167A (11723789_a_at) / RFU FAM26E (11764081_at) / Fold change /veh FAM26E (11764081_at) / RFU ISYNA1 (11749810_s_at) / Fold change /veh ISYNA1 (11749810_s_at) / RFU ACY1 (11761880_at) / Fold change /veh ACY1 (11761880_at) / RFU 11764098_at / Fold change /veh 11764098_at / RFU SAMD14 (11745864_x_at) / Fold change /veh SAMD14 (11745864_x_at) / RFU NPB (11741838_a_at) / Fold change /veh NPB (11741838_a_at) / RFU TMPRSS6 (11731388_a_at) / Fold change /veh TMPRSS6 (11731388_a_at) / RFU KRTAP10-2 (11738614_at) / Fold change /veh KRTAP10-2 (11738614_at) / RFU ARHGAP8 /// PRR5-ARHGAP8 (11727945_x_at) / Fold change /veh ARHGAP8 /// PRR5-ARHGAP8 (11727945_x_at) / RFU KRTAP5-7 /// NADSYN1 (11734609_at) / Fold change /veh KRTAP5-7 /// NADSYN1 (11734609_at) / RFU RASL12 (11751679_a_at) / Fold change /veh RASL12 (11751679_a_at) / RFU CDKN2B (11736163_a_at) / Fold change /veh CDKN2B (11736163_a_at) / RFU PRF1 (11729649_at) / Fold change /veh PRF1 (11729649_at) / RFU, ZNF638 /// ZNF638-IT1 / Fold change vs veh, ZNF638 /// ZNF638-IT1 / RFU, PANK3 / Fold change vs veh, PANK3 / RFU, SH3YL1 / Fold change vs veh, SH3YL1 / RFU, ZEB2 / Fold change vs veh, ZEB2 / RFU, NRIP1 / Fold change vs veh, NRIP1 / RFU, PTTG1IP / Fold change vs veh, PTTG1IP / RFU, CAPN2 / Fold change vs veh, CAPN2 / RFU, MED14 / Fold change vs veh, MED14 / RFU, SNORA58 / Fold change vs veh, SNORA58 / RFU, C1orf63 / Fold change vs veh, C1orf63 / RFU, LRRFIP1 / Fold change vs veh, LRRFIP1 / RFU, NDUFAF7 / Fold change vs veh, NDUFAF7 / RFU, SLC12A2 / Fold change vs veh, SLC12A2 / RFU, IBTK / Fold change vs veh, IBTK / RFU, ESF1 / Fold change vs veh, ESF1 / Fold change vs veh, TMEM50B / RFU, TAOK1 / Fold change vs veh, TAOK1 / RFU, ACBD3 / Fold change vs veh, ACBD3 / RFU, TMA16 / Fold change vs veh, TMA16 / RFU, RWDD3 / Fold change vs veh, RWDD3 / RFU, BCAT1 / Fold change vs veh, BCAT1 / RFU, EDEM3 / Fold change vs veh, EDEM3 / RFU, TMEM33 / Fold change vs veh, TMEM33 / RFU, WDR75 / Fold change vs veh, WDR75 / RFU, AHCTF1 / Fold change vs veh, AHCTF1 / RFU, TFRC / Fold change vs veh, TFRC / RFU, ZDHHC17 / Fold change vs veh, ZDHHC17 / RFU, NOM1 / Fold change vs veh, NOM1 / RFU, ARL8B / Fold change vs veh, ARL8B / RFU, ZBTB11 / Fold change vs veh, ZBTB11 / RFU, TAMM41 / Fold change vs veh, TAMM41 / RFU, KIAA1704 /// LOC100996395 / Fold change vs veh, KIAA1704 /// LOC100996395 / RFU, ING1 / Fold change vs veh, ING1 / RFU, TRMT61B / Fold change vs veh, TRMT61B / RFU, FUBP3 / Fold change vs veh, FUBP3 / RFU, TP53 / Fold change vs veh, TP53 / RFU, TNKS2 / Fold change vs veh, TNKS2 / RFU, ZFP14 / Fold change vs veh, ZFP14 / RFU, ACTR2 / Fold change vs veh, ACTR2 / RFU, PPP3R1 / Fold change vs veh, PPP3R1 / RFU, PIK3R1 / Fold change vs veh, PIK3R1 / RFU, HNRNPA1 / Fold change vs veh, HNRNPA1 / RFU, RNF170 / Fold change vs veh, RNF170 / RFU, ZNF28 / Fold change vs veh, ZNF28 / RFU, RNGTT / Fold change vs veh, RNGTT / RFU, OGT / Fold change vs veh, OGT / RFU, BRD1 / Fold change vs veh, BRD1 / RFU, MARS / Fold change vs veh, MARS / RFU, ZNF655 / Fold change vs veh, ZNF655 / RFU, FAHD1 / Fold change vs veh, FAHD1 / RFU, BDP1 / Fold change vs veh, BDP1 / RFU, LRRCC1 / Fold change vs veh, LRRCC1 / RFU, ARID1A / Fold change vs veh, ARID1A / RFU, ZNF146 / Fold change vs veh, ZNF146 / RFU, ZNF330 / Fold change vs veh, ZNF330 / RFU, GPN3 / Fold change vs veh, GPN3 / RFU, C9orf123 / Fold change vs veh, C9orf123 / RFU, N4BP2L2 / Fold change vs veh, N4BP2L2 / RFU, ARFIP1 / Fold change vs veh, ARFIP1 / RFU, FAM179B / Fold change vs veh, FAM179B / RFU, BCL10 / Fold change vs veh, BCL10 / RFU, UHRF1BP1L / Fold change vs veh, UHRF1BP1L / RFU, BET1 / Fold change vs veh, BET1 / RFU, CNOT2 / Fold change vs veh, CNOT2 / RFU, ZNF268 / Fold change vs veh, ZNF268 / Fold change vs veh, ZNF507 / RFU, DGCR2 / Fold change vs veh, DGCR2 / RFU, WDSUB1 / Fold change vs veh, WDSUB1 / Fold change vs veh, HSP90B1 /// MIR3652 / RFU, ADSS / Fold change vs veh, ADSS / RFU, GK / Fold change vs veh, GK / RFU, ZNF148 / Fold change vs veh, ZNF148 / RFU, TAF9 / Fold change vs veh, TAF9 / RFU, SLC1A5 / Fold change vs veh, SLC1A5 / RFU, SLMO2 / Fold change vs veh, SLMO2 / RFU, ABCC4 / Fold change vs veh, ABCC4 / RFU, LOC101060439 /// RAP1B / Fold change vs veh, LOC101060439 /// RAP1B / RFU, RFX7 / Fold change vs veh, RFX7 / RFU, GTPBP10 / Fold change vs veh, GTPBP10 / RFU, CNEP1R1 / Fold change vs veh, CNEP1R1 / RFU, BIVM-ERCC5 /// ERCC5 / Fold change vs veh, BIVM-ERCC5 /// ERCC5 / RFU, ILF3 / Fold change vs veh, ILF3 / RFU 11762660_at / Fold change /veh 11762660_at / RFU VCAN (11757783_s_at) / Fold change /veh VCAN (11757783_s_at) / RFU DDX43 (11728927_at) / Fold change /veh DDX43 (11728927_at) / RFU KRT8 (11758188_x_at) / Fold change /veh KRT8 (11758188_x_at) / RFU NKD1 (11759106_at) / Fold change /veh NKD1 (11759106_at) / RFU SRD5A1 (11742802_a_at) / Fold change /veh SRD5A1 (11742802_a_at) / RFU TPSAB1 /// TPSB2 (11721975_s_at) / Fold change /veh TPSAB1 /// TPSB2 (11721975_s_at) / RFU GSTM3 (11746129_a_at) / Fold change /veh GSTM3 (11746129_a_at) / RFU IL23R (11737362_x_at) / Fold change /veh IL23R (11737362_x_at) / RFU TMEM51 (11727254_a_at) / Fold change /veh TMEM51 (11727254_a_at) / RFU PIWIL2 (11732686_x_at) / Fold change /veh PIWIL2 (11732686_x_at) / RFU ORM1 (11744905_x_at) / Fold change /veh ORM1 (11744905_x_at) / RFU CCDC152 (11743942_at) / Fold change /veh CCDC152 (11743942_at) / RFU ECM1 (11717891_a_at) / Fold change /veh ECM1 (11717891_a_at) / RFU IL23R (11748794_a_at) / Fold change /veh IL23R (11748794_a_at) / RFU TNFAIP8L3 (11732012_x_at) / Fold change /veh TNFAIP8L3 (11732012_x_at) / RFU MBOAT4 (11741988_at) / Fold change /veh MBOAT4 (11741988_at) / RFU 11764193_at / Fold change /veh 11764193_at / RFU TMEM53 (11763286_at) / Fold change /veh TMEM53 (11763286_at) / RFU MAGEB2 (11727129_at) / Fold change /veh MAGEB2 (11727129_at) / RFU TMEM200A (11744735_a_at) / Fold change /veh TMEM200A (11744735_a_at) / RFU CCDC152 (11751479_a_at) / Fold change /veh CCDC152 (11751479_a_at) / RFU FAM211A (11726209_a_at) / Fold change /veh FAM211A (11726209_a_at) / RFU RGS16 (11746705_a_at) / Fold change /veh RGS16 (11746705_a_at) / RFU VCAN (11755009_s_at) / Fold change /veh VCAN (11755009_s_at) / RFU RHOB (11743442_s_at) / Fold change /veh RHOB (11743442_s_at) / RFU RGS16 (11720943_a_at) / Fold change /veh RGS16 (11720943_a_at) / RFU RGS16 (11720944_at) / Fold change /veh RGS16 (11720944_at) / RFU, VPS4B / Fold change vs veh, VPS4B / RFU, CREB1 / Fold change vs veh, CREB1 / RFU, DNAJC13 / Fold change vs veh, DNAJC13 / RFU, GNAQ / Fold change vs veh, GNAQ / RFU, CDK5R1 / Fold change vs veh, CDK5R1 / RFU, ZRANB3 / Fold change vs veh, ZRANB3 / RFU, CUL4A / Fold change vs veh, CUL4A / RFU, CCNY / Fold change vs veh, CCNY / RFU, UFL1 / Fold change vs veh, UFL1 / RFU, COG3 / Fold change vs veh, COG3 / RFU, DIAPH2 / Fold change vs veh, DIAPH2 / RFU, SKA2 / Fold change vs veh, SKA2 / RFU, AFF3 / Fold change vs veh, AFF3 / RFU, LMF1 / Fold change vs veh, LMF1 / RFU, IPO11 / Fold change vs veh, IPO11 / RFU, DFFB / Fold change vs veh, DFFB / RFU, FOXP1 / Fold change vs veh, FOXP1 / RFU, CARD8 / Fold change vs veh, CARD8 / RFU, STRN3 / Fold change vs veh, STRN3 / RFU, ADK / Fold change vs veh, ADK / RFU, RASSF2 / Fold change vs veh, RASSF2 / RFU, WIPF1 / Fold change vs veh, WIPF1 / RFU, LARP1B / Fold change vs veh, LARP1B / RFU, RASA1 / Fold change vs veh, RASA1 / RFU, RB1 / Fold change vs veh, RB1 / RFU, PPFIA1 / Fold change vs veh, PPFIA1 / RFU, MAT2A / Fold change vs veh, MAT2A / RFU, CCT5 / Fold change vs veh, CCT5 / RFU, WDR92 / Fold change vs veh, WDR92 / RFU, CUX1 / Fold change vs veh, CUX1 / RFU, TTC7A / Fold change vs veh, TTC7A / RFU, TMEM135 / Fold change vs veh, TMEM135 / RFU, DEPTOR / Fold change vs veh, DEPTOR / RFU, CPM / Fold change vs veh, CPM / RFU, DNAJB6 / Fold change vs veh, DNAJB6 / RFU, CACNA2D3 / Fold change vs veh, CACNA2D3 / RFU, DTX4 / Fold change vs veh, DTX4 / RFU, TFCP2 / Fold change vs veh, TFCP2 / RFU, GMCL1 /// GMCL1P1 / Fold change vs veh, GMCL1 /// GMCL1P1 / RFU, AEBP2 / Fold change vs veh, AEBP2 / RFU, SNHG1 /// SNORD22 /// SNORD25 /// SNORD26 /// SNORD27 /// SNORD28 /// SNORD29 /// SNORD31 / Fold change vs veh, SNHG1 /// SNORD22 /// SNORD25 /// SNORD26 /// SNORD27 /// SNORD28 /// SNORD29 /// SNORD31 / Fold change (Aza/veh), C12orf56 (ProbeSet 11735607_a_at) / Fold change (ACY-1035/veh), C12orf56 (ProbeSet 11735607_a_at) / Fold change (Aza/veh), FGFR1OP (ProbeSet 11751329_s_at) / Fold change (ACY-1035/veh), FGFR1OP (ProbeSet 11751329_s_at) / Fold change (Aza/veh), VPS36 (ProbeSet 11739960_a_at) / Fold change (ACY-1035/veh), VPS36 (ProbeSet 11739960_a_at) / RFU SYPL1 (11715823_x_at) / Fold change /veh SYPL1 (11715823_x_at) / RFU IGFBP7 (11715501_s_at) / Fold change /veh IGFBP7 (11715501_s_at) / RFU REEP3 (11722064_at) / Fold change /veh REEP3 (11722064_at) / RFU IGLL1 (11728026_x_at) / Fold change /veh IGLL1 (11728026_x_at): dose or concentration left out as unconfirmed
Conditions: MV-4-11 cells, 48 hours

For Nc1ccc(-c2cccs2)cc1NC(=O)c1ccc2c(c1)cc(C1CC1)n2CCN1CCOCC1 [ACY-1035], which “Fold change /veh PRSS12 (11739890_at)” value is on record?
The value was 1.14.
